The values below are quoted from earlier work in paper PMC5749684, “Tetrahydrocarbazoles are a novel class of potent P-type ATPase inhibitors with antifungal activity” (PLoS ONE, 2018).

This data set deals with Na^+,K^+-ATPase. Also on record: method as in PMID 19289472. Conditions: cited from earlier work.

On to `CC(=O)C1=C(O)[C@@H]2[C@H]3c4c[nH]c5cccc(c45)C[C@H]3C(C)(C)N2C1=O` [CPA, cyclopiazonic acid], for which the “Activity against Na^+,K^+-ATPase (in words)” value was “inactivity”.
